Data: a compilation of properties of binary mixtures (doi:10.1007/s10953-015-0327-z)

Assay: xn = mol fraction of the nth substance listed
Conditions: 298.15 K, 101 kPa

For `CCCn1cc[n+](C)c1.O=S(=O)([N-]S(=O)(=O)C(F)(F)F)C(F)(F)F` + O, the speed of sound (x2 = 0.0016) was 1230.2 m/s, the speed of sound (x2 = 0.0556) was 1231.7 m/s and the speed of sound (x2 = 0.2358) was 1236 m/s.

`CC[n+]1ccn(C)c1.N#C[S-]` + O gave a speed of sound (x2 = 0.153) of 1848.1 m/s and a speed of sound (x2 = 0.204) of 1847.8 m/s.

In the case of `CCCC[n+]1ccn(C)c1.O=S(=O)([N-]S(=O)(=O)C(F)(F)F)C(F)(F)F` + O, the speed of sound (x2 = 0.012) is reported as 1226.2 m/s, the speed of sound (x2 = 0.1166) is reported as 1228.4 m/s and the speed of sound (x2 = 0.1843) is reported as 1230.3 m/s.

With `CCCC[N+]1(C)CCCC1.O=S(=O)([N-]S(=O)(=O)C(F)(F)F)C(F)(F)F` + O the speed of sound (x2 = 0.0092) was 1267.8 m/s, the speed of sound (x2 = 0.0139) was 1267.7 m/s and the speed of sound (x2 = 0.0228) was 1267.8 m/s. For the same compound, the speed of sound (x2 = 0.0467) was 1268.3 m/s and the speed of sound (x2 = 0.2014) was 1273.9 m/s.
